This is an account of results in ChEMBL document CHEMBL6109116, “Peripherally Restricted Fused Heterocyclic Peptidomimetic Multifunctional Opioid Agonists as Novel, Potent Analgesics” (ACS Med Chem Lett, 2025).

Data set [1] is described as follows: Toxicity in C57BL/6J mouse assessed as increase in ambulation at 30 mg/kg, ip measured up to 120 min. It counts as organism-based. The settings on record: in vivo, 2 h.
For data set [2], the target named is Kappa-type opioid receptor (Homo sapiens) (UniProt P41145). Nature of the data set: Partial agonist activity at human KOR extracted from CHO cell membrane assessed as stimulation of [35S]GTPgammaS binding at 1 to 10 uM incubated for 60 mins by liquid scintillation counting assay. It is filed as functional, cell membranes. To be noted: filed as partial agonist, dose 1-10 µM.
Kappa-type opioid receptor (Homo sapiens), sequence (P41145 whole entry): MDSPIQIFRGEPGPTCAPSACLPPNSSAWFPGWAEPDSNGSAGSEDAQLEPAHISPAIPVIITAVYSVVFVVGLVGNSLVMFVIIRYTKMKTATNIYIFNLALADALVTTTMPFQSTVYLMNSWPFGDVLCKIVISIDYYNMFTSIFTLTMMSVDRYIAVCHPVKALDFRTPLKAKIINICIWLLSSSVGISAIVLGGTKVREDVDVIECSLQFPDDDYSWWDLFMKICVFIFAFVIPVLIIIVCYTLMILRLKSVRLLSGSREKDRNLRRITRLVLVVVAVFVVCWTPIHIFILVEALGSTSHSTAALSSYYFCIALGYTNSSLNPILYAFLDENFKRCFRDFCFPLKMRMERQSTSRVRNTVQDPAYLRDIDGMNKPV

The species entered for data set [3] is Mus musculus. The data set can be described thus: Antinociceptive activity in male C57BL/6J mouse measured after 10 min by 55 degreeC warm-water tail-withdrawal assay. It is filed as functional.
Data set [4] has as its target Mu-type opioid receptor (Rattus norvegicus, UniProt P33535). The data set can be described thus: Displacement of [3H]-DAMGO from rat cortical membrane MOR assessed as inhibition constant incubated for 2 hrs by Wallac Betaplate liquid scintillation counting analysis. It counts as cell membranes, Cortex.
The subject of data set [5] is Mus musculus. Nature of the data set: Antinociceptive activity in male C57BL/6J mouse assessed as peripheral restriction at 30 mg/kg, ip pre-treated with naloxone methiodide at 30 mg/kg, SC for 30 min by 55 degreeC warm-water tail-withdrawal assay. It is filed as functional.
The target of data set [6] is Mu-type opioid receptor (Rattus norvegicus) (UniProt P33535). The data set can be described thus: Partial agonist activity at rat MOR extracted from CHO cell membrane assessed as stimulation of [35S]GTPgammaS binding at 1 to 10 uM incubated for 60 mins by liquid scintillation counting assay. It is filed as functional, cell membranes. The settings on record: dose 1-10 µM.
Mu-type opioid receptor (Rattus norvegicus), sequence (P33535 whole entry): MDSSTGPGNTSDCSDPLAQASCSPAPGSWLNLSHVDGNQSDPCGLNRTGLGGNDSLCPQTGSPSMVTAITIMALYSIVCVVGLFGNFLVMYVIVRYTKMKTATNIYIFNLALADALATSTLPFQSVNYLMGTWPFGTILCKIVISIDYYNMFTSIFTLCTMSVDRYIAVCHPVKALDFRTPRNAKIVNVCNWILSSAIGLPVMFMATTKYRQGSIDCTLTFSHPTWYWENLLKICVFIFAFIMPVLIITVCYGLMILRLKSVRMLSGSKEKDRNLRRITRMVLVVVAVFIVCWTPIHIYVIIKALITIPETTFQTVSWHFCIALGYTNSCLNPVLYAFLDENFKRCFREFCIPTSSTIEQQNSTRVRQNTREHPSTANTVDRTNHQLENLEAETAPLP

In data set [7] the test system is Mus musculus. Nature of the data set: Antinociceptive activity in male C57BL/6J mouse assessed as peripheral restriction at 30 mg/kg, ip pre-treated with naloxone methiodide at 30 nmol, ICV for 30 min by 55 degreeC warm-water tail-withdrawal assay. It is filed as functional.
The target of data set [8] is Delta-type opioid receptor (Mus musculus) (UniProt P32300). The data set can be described thus: Partial agonist activity at mouse DOR extracted from CHO cell membrane assessed as stimulation of [35S]GTPgammaS binding at 1 to 10 uM incubated for 60 mins by liquid scintillation counting assay. It is filed as functional, cell membranes. To be noted: filed as partial agonist, dose 1-10 µM.
Delta-type opioid receptor (Mus musculus), sequence (P32300 whole entry): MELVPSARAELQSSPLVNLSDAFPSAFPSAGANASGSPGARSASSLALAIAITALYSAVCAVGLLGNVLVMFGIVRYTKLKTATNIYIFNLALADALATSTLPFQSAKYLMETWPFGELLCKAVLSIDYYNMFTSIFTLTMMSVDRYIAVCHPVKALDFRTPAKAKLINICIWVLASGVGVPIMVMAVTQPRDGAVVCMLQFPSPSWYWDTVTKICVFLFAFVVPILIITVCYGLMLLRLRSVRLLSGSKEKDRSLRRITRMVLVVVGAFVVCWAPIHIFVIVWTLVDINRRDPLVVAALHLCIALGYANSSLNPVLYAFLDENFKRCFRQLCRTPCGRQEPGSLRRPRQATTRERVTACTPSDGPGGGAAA

Data set [9] addresses Kappa-type opioid receptor (Cavia porcellus, UniProt P41144). Nature of the data set: Displacement of [3H]U69593 from guinea pig KOR assessed as inhibition constant incubated for 2 hrs by Wallac Betaplate liquid scintillation counting analysis.
A short description of data set [10]: Toxicity in C57BL/6J mouse assessed as effect on locomotor activity at 30 mg/kg, ip measured up to 120 min. It is filed as organism-based. The settings on record: in vivo, 2 h.
Data set [11] in a line: Toxicity in C57BL/6J mouse assessed as respiratory depression at 30 mg/kg, ip measured after 20 mins. It counts as organism-based. The settings on record: in vivo.
Data set [12] relates to Mus musculus. The data set can be described thus: Antinociceptive activity in male C57BL/6J mouse preadministered with compound for 10 mins followed by acetic acid administration and measured after 15 to 30 min by Acetic acid stretching assay (AcAS). It is filed as functional. To be noted: time 25-40 min.
The subject of data set [13] is Mus musculus. The data set can be described thus: Antinociceptive activity in wild type male C57BL/6J mouse model at 10 nmol, ICV preadministered with naltrindole for 20 mins followed by compound administration for 10 mins. It counts as functional, organism-based.
Data set [14] concerns the target Delta-type opioid receptor (Rattus norvegicus, UniProt P33533). The data set can be described thus: Displacement of [3H]-DPDPE from rat cortical membrane DOR assessed as inhibition constant incubated for 2.5 hrs by Wallac Betaplate liquid scintillation counting analysis. It is filed as cell membranes, Cortex.
Data set [15] concerns Mus musculus. The data set can be described thus: Antinociceptive activity in male C57BL/6J mouse at 30 mg/kg, po by 55 degreeC warm-water tail-withdrawal assay. To be noted: time <= 60.0 min. It counts as functional, organism-based.
The test system of data set [16] is Mus musculus. Nature of the data set: Antinociceptive activity in male C57BL/6J mouse at 10 nmol, ICV administered for 8 hrs by 55 degreeC warm-water tail-withdrawal assay. It counts as functional, organism-based.
Data set [17] has as its system Mus musculus. The data set can be described thus: Antinociceptive activity in male C57BL/6J mouse assessed as peripheral restriction at 30 mg/kg, ip by 55 degreeC warm-water tail-withdrawal assay. It counts as functional.
Data set [18] can be described thus: Selectivity ratio of ED50 for antinociceptive activity in male C57BL/6J mouse at 10 mg/kg, ip measured after 10 min by 55 degreeC warm-water tail-withdrawal assay to ED50 for antinociceptive activity in male C57BL/6J mouse preadministered with compound for 10 mins followed by acetic acid administration and measured after 15 to 30 min by Acetic acid stretching assay (AcAS). It counts as functional.

Data set [19] relates to Mus musculus. Nature of the data set: Antinociceptive activity in KOR knockout male C57BL/6J mouse model at 10 nmol, ICV administered for 10 mins by 55 degreeC warm-water tail-withdrawal assay. It is filed as functional, organism-based.
Data set [20] concerns Mus musculus. The data set can be described thus: Antinociceptive activity in MOR knockout male C57BL/6J mouse model at 10 nmol, ICV administered for 10 mins by 55 degreeC warm-water tail-withdrawal assay. It counts as functional, organism-based.

Structures are written as SMILES. The source made the active and inactive calls. The rule behind the calls is not given here.

Kappa-type opioid receptor, sequence (P41144 whole entry): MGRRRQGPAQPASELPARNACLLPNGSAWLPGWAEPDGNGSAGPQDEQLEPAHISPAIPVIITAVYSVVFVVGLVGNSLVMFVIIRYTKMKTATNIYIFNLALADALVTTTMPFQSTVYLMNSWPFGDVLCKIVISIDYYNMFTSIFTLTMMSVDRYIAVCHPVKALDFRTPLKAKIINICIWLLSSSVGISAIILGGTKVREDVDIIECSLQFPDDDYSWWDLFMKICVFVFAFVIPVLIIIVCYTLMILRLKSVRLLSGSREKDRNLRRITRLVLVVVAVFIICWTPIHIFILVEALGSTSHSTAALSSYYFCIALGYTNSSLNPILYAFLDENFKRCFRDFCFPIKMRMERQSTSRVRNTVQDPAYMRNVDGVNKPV
Delta-type opioid receptor, sequence (P33533 whole entry): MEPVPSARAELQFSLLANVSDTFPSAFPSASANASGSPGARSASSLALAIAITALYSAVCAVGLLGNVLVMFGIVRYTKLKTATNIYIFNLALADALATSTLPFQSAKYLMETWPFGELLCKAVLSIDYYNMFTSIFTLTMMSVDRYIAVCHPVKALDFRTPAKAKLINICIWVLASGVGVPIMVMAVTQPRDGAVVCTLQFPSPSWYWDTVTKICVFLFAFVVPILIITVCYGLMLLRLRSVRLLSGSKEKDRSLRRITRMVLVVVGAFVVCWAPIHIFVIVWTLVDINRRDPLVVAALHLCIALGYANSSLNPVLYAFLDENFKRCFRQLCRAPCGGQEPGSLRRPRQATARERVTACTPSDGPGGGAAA
Mu-type opioid receptor, sequence (P33535 whole entry): as the sequence (P33535 whole entry) above

`CC(C)[C@H]1CN=C2C=C3N(CCc4ccccc4)CC[C@H](N(C)C)CN3[C@@H](Cc3ccc(O)cc3)CN21`: the Activity entry in [1] was “Non-toxic”; in [5], 3.5%; in data set [6], “Not active; No Significant Activity”; in data set [7], 59.1%; in [8], “Active; Weak Partial Agonism Observed”; in data set [10], “Non-toxic”. In addition, the Activity result was “Non-toxic” in [11], “Time-dependent-effect” in [15], “Active; Comparable To Morphine And U50,489” in data set [16] and 87.9% in data set [17]. The outcome in data set [2] was Active. The ED50 in data set [3] amounted to 14 mg/kg; in [12], 0.67 mg/kg. Further, the inhibitory constant (Ki) in data set [4] amounted to 430 nM; in data set [9], 25 nM; in data set [14] it was 20 nM. For the same compound, the result in data set [13], in [19] and in [20] was inactive. The “Ratio ED50” value in [18] was determined as 20.95.
